From PMC11601558, “SLC6A19 inhibition facilitates urinary neutral amino acid excretion and lowers plasma phenylalanine” (JCI Insight, 2024)

Assays:
healthy volunteers [1] = assay: Plasma amino acid levels in healthy volunteers (MAD); assay type: in vivo, human
Procedure: (§1) The effect of JNT-517 on plasma and urine AA levels was measured using an ultra-performance liquid chromatography mass spectrometry assay following 6-aminoquinolyl-N-hydroxysuccinimidyl carbamate (AQC) derivatization. For the SAD study, plasma samples were collected on day –1 and day 1 predose, as well as 24, 48, and 72 hours after dosing. A first morning void urine sample on Days –1 and 1 predose, as well as 2 pooled urine samples 0–8 hours after and 8–24 hours after dose were also collected following study drug administration. For the MAD study, plasma samples were collected on day –1, 1, 7, and 14 predose, as well as day 14, 24 hours after dosing. A first morning void urine samples on day –1, 1, 7, and 14 as well as 2 pooled urine samples 0–8 hours and 8–24 hours after dose on days 1, 7, and 14 were also collected following JNT-517 or placebo administration. Study participants in SAD and MAD cohorts were dosed in the morning following an overnight fast of at least 8 hours and were provided the following meals in relation to dosing times: breakfast after the morning dose, lunch 4 hours after morning dose, optional snack in the afternoon 8 hours after the morning dose and after the second dose for MAD cohorts dosed BID, dinner approximately 10 hours after the morning dose and at least 2 hours after the second dose for MAD cohorts dosed BID. Predose plasma amino acids were drawn after a minimum of 8 hours fasting overnight and after-dose levels were drawn after > 1.5 hours fasting. Resulting plasma and urine amino acid concentration measurements, as well a total amino acid excretion over a time period were summarized using appropriate descriptive statistics and compared with either predose levels or placebo-dose values. Tryptophan was not included in the amino acid panel due to analytical limitations.

healthy volunteers [2] = assay: Urine amino acid excretion in healthy volunteers (pharmacodynamics); assay type: in vivo, human
Procedure: as §1
IC50 values for transport inhibition in cells overexpressing SLC6A19 and TMEM27 were calculated using a 4-parameter logistic regression in Collaborative Drug Discovery (CDD). Reported IC50 values are geometric means of 4–6 independent experiments. For postmortem intestinal transport assays, single outliers of quadruplicate replicates were excluded from the calculation if a signal value’s distance to the mean exceeded 35% of the signal average. The IC50 values of individual experiments were calculated with a 3- or 4-parameter logistic regression using GraphPad Prism 9. The reported IC50 value represents the geometric mean of n = 5 experiments from 3 individual donors. Statistical comparison of urinary Phe excretion in Pah^enu2 mice treated with vehicle or JN-170 was conducted using 1-way analysis of variance (ANOVA) with Tukey’s post hoc comparison. Statistical analysis of baseline-adjusted plasma Phe in mice treated with vehicle or JN-170 was determined by 2-way ANOVA with Dunnett’s post hoc comparison. All statistical analyses were performed using GraphPad Prism 9. For clinical studies, group sizes were not determined based on statistical power calculations. Statistical significance of pharmacodynamic results was not assessed. Values are reported as mean (urinary Phe excretion, T1/2, Cl/F), geometric mean (Cmax/D, AUC0-inf/D), or median (Tmax).

`NC(=O)N1CCC[C@@H](N(C(=O)NCc2ccc(OC(F)(F)F)cc2F)C2CC2)C1` [JNT-517] was tested, and the “number of subjects with plasma Alanine below lower limit of normal” value (healthy volunteers [1]; MAD 25 mg BID, Post-dose) was 0, the “number of subjects with plasma Arginine below lower limit of normal” value (healthy volunteers [1]; MAD 25 mg BID, Post-dose) was 0 and the “number of subjects with plasma Asparagine below lower limit of normal” value (healthy volunteers [1]; MAD 25 mg BID, Post-dose) was 0. For the same compound, the “number of subjects with plasma Cystine below lower limit of normal” value (healthy volunteers [1]; MAD 25 mg BID, Post-dose) was 5, the “number of subjects with plasma Glutamate below lower limit of normal” value (healthy volunteers [1]; MAD 25 mg BID, Post-dose) was 0 and the “number of subjects with plasma Glutamine below lower limit of normal” value (healthy volunteers [1]; MAD 25 mg BID, Post-dose) was 0. For the same compound, the “number of subjects with plasma Glycine below lower limit of normal” value (healthy volunteers [1]; MAD 25 mg BID, Post-dose) was 0, the “number of subjects with plasma Isoleucine below lower limit of normal” value (healthy volunteers [1]; MAD 25 mg BID, Post-dose) was 0 and the “number of subjects with plasma Leucine below lower limit of normal” value (healthy volunteers [1]; MAD 25 mg BID, Post-dose) was 0. The “number of subjects with plasma Lysine below lower limit of normal” value (healthy volunteers [1]; MAD 25 mg BID, Post-dose) was 0, the “number of subjects with plasma Methionine below lower limit of normal” value (healthy volunteers [1]; MAD 25 mg BID, Post-dose) was 0 and the “number of subjects with plasma Phenylalanine below lower limit of normal” value (healthy volunteers [1]; MAD 25 mg BID, Post-dose) was 0. The “number of subjects with plasma Proline below lower limit of normal” value (healthy volunteers [1]; MAD 25 mg BID, Post-dose) was 0, the “number of subjects with plasma Serine below lower limit of normal” value (healthy volunteers [1]; MAD 25 mg BID, Post-dose) was 0 and the “number of subjects with plasma Threonine below lower limit of normal” value (healthy volunteers [1]; MAD 25 mg BID, Post-dose) was 0. The “number of subjects with plasma Tyrosine below lower limit of normal” value (healthy volunteers [1]; MAD 25 mg BID, Post-dose) was 0, the “number of subjects with plasma Valine below lower limit of normal” value (healthy volunteers [1]; MAD 25 mg BID, Post-dose) was 0 and the “number of subjects with plasma Alanine below lower limit of normal” value (healthy volunteers [1]; MAD 75 mg BID, Post-dose) was 0. For the same compound, the “number of subjects with plasma Arginine below lower limit of normal” value (healthy volunteers [1]; MAD 75 mg BID, Post-dose) was 0, the “number of subjects with plasma Asparagine below lower limit of normal” value (healthy volunteers [1]; MAD 75 mg BID, Post-dose) was 0 and the “number of subjects with plasma Cystine below lower limit of normal” value (healthy volunteers [1]; MAD 75 mg BID, Post-dose) was 0. For the same compound, the “number of subjects with plasma Glutamate below lower limit of normal” value (healthy volunteers [1]; MAD 75 mg BID, Post-dose) was 0, the “number of subjects with plasma Glutamine below lower limit of normal” value (healthy volunteers [1]; MAD 75 mg BID, Post-dose) was 0 and the “number of subjects with plasma Glycine below lower limit of normal” value (healthy volunteers [1]; MAD 75 mg BID, Post-dose) was 0. For the same compound, the “number of subjects with plasma Isoleucine below lower limit of normal” value (healthy volunteers [1]; MAD 75 mg BID, Post-dose) was 0, the “number of subjects with plasma Leucine below lower limit of normal” value (healthy volunteers [1]; MAD 75 mg BID, Post-dose) was 0 and the “number of subjects with plasma Lysine below lower limit of normal” value (healthy volunteers [1]; MAD 75 mg BID, Post-dose) was 0. The “number of subjects with plasma Methionine below lower limit of normal” value (healthy volunteers [1]; MAD 75 mg BID, Post-dose) was 0, the “number of subjects with plasma Phenylalanine below lower limit of normal” value (healthy volunteers [1]; MAD 75 mg BID, Post-dose) was 0 and the “number of subjects with plasma Proline below lower limit of normal” value (healthy volunteers [1]; MAD 75 mg BID, Post-dose) was 0. The “number of subjects with plasma Serine below lower limit of normal” value (healthy volunteers [1]; MAD 75 mg BID, Post-dose) was 0, the “number of subjects with plasma Threonine below lower limit of normal” value (healthy volunteers [1]; MAD 75 mg BID, Post-dose) was 0 and the “number of subjects with plasma Tyrosine below lower limit of normal” value (healthy volunteers [1]; MAD 75 mg BID, Post-dose) was 0. For the same compound, the “number of subjects with plasma Valine below lower limit of normal” value (healthy volunteers [1]; MAD 75 mg BID, Post-dose) was 0, the “number of subjects with plasma Alanine below lower limit of normal” value (healthy volunteers [1]; MAD 150 mg QD, Post-dose) was 0 and the “number of subjects with plasma Arginine below lower limit of normal” value (healthy volunteers [1]; MAD 150 mg QD, Post-dose) was 0. For the same compound, the “number of subjects with plasma Asparagine below lower limit of normal” value (healthy volunteers [1]; MAD 150 mg QD, Post-dose) was 0, the “number of subjects with plasma Cystine below lower limit of normal” value (healthy volunteers [1]; MAD 150 mg QD, Post-dose) was 5 and the “number of subjects with plasma Glutamate below lower limit of normal” value (healthy volunteers [1]; MAD 150 mg QD, Post-dose) was 0. For the same compound, the “number of subjects with plasma Glutamine below lower limit of normal” value (healthy volunteers [1]; MAD 150 mg QD, Post-dose) was 0, the “number of subjects with plasma Glycine below lower limit of normal” value (healthy volunteers [1]; MAD 150 mg QD, Post-dose) was 0 and the “number of subjects with plasma Isoleucine below lower limit of normal” value (healthy volunteers [1]; MAD 150 mg QD, Post-dose) was 0. For the same compound, the “number of subjects with plasma Leucine below lower limit of normal” value (healthy volunteers [1]; MAD 150 mg QD, Post-dose) was 0, the “number of subjects with plasma Lysine below lower limit of normal” value (healthy volunteers [1]; MAD 150 mg QD, Post-dose) was 0 and the “number of subjects with plasma Methionine below lower limit of normal” value (healthy volunteers [1]; MAD 150 mg QD, Post-dose) was 0. For the same compound, the “number of subjects with plasma Phenylalanine below lower limit of normal” value (healthy volunteers [1]; MAD 150 mg QD, Post-dose) was 0, the “number of subjects with plasma Proline below lower limit of normal” value (healthy volunteers [1]; MAD 150 mg QD, Post-dose) was 0 and the “number of subjects with plasma Threonine below lower limit of normal” value (healthy volunteers [1]; MAD 150 mg QD, Post-dose) was 0. The “number of subjects with plasma Valine below lower limit of normal” value (healthy volunteers [1]; MAD 150 mg QD, Post-dose) was 0, the “number of subjects with plasma Serine below lower limit of normal” value (healthy volunteers [1]; MAD 150 mg QD, Post-dose (16.7%)) was 1 and the “number of subjects with plasma Tyrosine below lower limit of normal” value (healthy volunteers [1]; MAD 150 mg QD, Post-dose (33.3%)) was 2. The “24 hour Phe excretion, mean ± SD” value (healthy volunteers [2]; MAD day 14, 75 mg BID) was 89 ± 34 mg, the “Phe excreted from 0–8 hours, mean ± SD” value (healthy volunteers [2]; MAD day 14, 75 mg BID) was 32 ± 20 mg and the “urine Phe excreted from 8–24 hours, mean ± SD” value (healthy volunteers [2]; MAD day 14, 75 mg BID) was 56 ± 19 mg. For the same compound, the “24 hour Phe excretion, mean ± SD” value (healthy volunteers [2]; MAD day 14, 150 mg QD) was 72 ± 18 mg, the “Phe excreted from 0–8 hours, mean ± SD” value (healthy volunteers [2]; MAD day 14, 150 mg QD) was 53 ± 16 mg and the “urine Phe excreted from 8–24 hours, mean ± SD” value (healthy volunteers [2]; MAD day 14, 150 mg QD) was 20 ± 11 mg. For the same compound, the “Phe excreted in urine over a 24 hour period, mean ± SD” value (healthy volunteers [2]; SAD 170 mg) was 142 ± 30 mg, the “increase in 24 hour urinary Phe vs placebo” value (healthy volunteers [2]; SAD 170 mg) was “approximately 14 fold” and the “glutamine excreted in urine, mean ± SD” value (healthy volunteers [2]; SAD 170 mg, Supplemental Figure 6) was 1,904 ± 541 mg.
